Here are results for 22 compounds from patent US8148391B2 (Cephalon, Inc., priority 2006, dated 2012).

Structures are written as SMILES.

Usually IC50 stands for the midpoint of a concentration-inhibition curve.

The target in test [1] is T1, c-Met (cytoplasmic domain) (Homo sapiens, UniProt P08581).
T1 construct: 10 ng/mL c-Met (cytoplasmic domain, Invitrogen Corporation #PV3143); purchased Invitrogen Corporation PV3143
In words: c-Met Kinase Assay (same methods as for ALK, with modifications). The format is biochemical. To be noted: 1 μM ATP (Km level), 10 ng/mL c-Met; read-out: cMet Activity (c-Met kinase inhibition, IC50 class). In a few lines:
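IC50 values were fitted by variable-slope sigmoidal regression of percent inhibition against log compound concentration. Phosphorylation was read with Eu-N1 PT66 antibody after a 15 min, 37 °C reaction. The reaction was initiated with 10 ng/mL c-Met cytoplasmic domain on wells coated with 10 μg/mL PLC-γ in TBS.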

Test [2] deals with T2, baculovirus-expressed ALK (Homo sapiens, UniProt Q9UM73).
T2 construct: host or cells: baculovirus expression system
The test is described as follows: ALK Kinase Assay (ELISA-type, time-resolved fluorescence). The format is biochemical. The note with it: 1 μM ATP (Km level), 30 ng/ml ALK, 37° C., 15 minutes; read-out: ALK Activity (ALK kinase inhibition, IC50 class). In a few lines: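 Wells were coated with phospholipase C-γ at 10 μg/mL in Tris-buffered saline. Adding 30 ng/ml enzyme started the reaction, which ran at 37° C for 15 minutes before Eu-N1 PT66 antibody detection. Percent inhibition versus log10 concentration gave IC50 by variable-slope fit.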

T1 sequence (P08581 956-1390 limits assumed): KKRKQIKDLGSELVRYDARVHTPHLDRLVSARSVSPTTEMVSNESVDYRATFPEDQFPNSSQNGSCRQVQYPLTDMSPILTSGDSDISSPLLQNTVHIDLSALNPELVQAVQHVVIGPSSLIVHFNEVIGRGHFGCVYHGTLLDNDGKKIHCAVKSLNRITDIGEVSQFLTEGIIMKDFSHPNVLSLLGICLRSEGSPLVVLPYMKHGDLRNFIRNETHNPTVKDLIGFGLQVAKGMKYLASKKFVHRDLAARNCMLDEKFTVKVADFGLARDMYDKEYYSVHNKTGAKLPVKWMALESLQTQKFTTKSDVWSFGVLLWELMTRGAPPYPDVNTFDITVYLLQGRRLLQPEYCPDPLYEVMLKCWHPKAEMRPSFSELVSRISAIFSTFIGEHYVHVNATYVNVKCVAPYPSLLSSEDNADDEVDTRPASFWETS
T2 sequence (Q9UM73 19-1620): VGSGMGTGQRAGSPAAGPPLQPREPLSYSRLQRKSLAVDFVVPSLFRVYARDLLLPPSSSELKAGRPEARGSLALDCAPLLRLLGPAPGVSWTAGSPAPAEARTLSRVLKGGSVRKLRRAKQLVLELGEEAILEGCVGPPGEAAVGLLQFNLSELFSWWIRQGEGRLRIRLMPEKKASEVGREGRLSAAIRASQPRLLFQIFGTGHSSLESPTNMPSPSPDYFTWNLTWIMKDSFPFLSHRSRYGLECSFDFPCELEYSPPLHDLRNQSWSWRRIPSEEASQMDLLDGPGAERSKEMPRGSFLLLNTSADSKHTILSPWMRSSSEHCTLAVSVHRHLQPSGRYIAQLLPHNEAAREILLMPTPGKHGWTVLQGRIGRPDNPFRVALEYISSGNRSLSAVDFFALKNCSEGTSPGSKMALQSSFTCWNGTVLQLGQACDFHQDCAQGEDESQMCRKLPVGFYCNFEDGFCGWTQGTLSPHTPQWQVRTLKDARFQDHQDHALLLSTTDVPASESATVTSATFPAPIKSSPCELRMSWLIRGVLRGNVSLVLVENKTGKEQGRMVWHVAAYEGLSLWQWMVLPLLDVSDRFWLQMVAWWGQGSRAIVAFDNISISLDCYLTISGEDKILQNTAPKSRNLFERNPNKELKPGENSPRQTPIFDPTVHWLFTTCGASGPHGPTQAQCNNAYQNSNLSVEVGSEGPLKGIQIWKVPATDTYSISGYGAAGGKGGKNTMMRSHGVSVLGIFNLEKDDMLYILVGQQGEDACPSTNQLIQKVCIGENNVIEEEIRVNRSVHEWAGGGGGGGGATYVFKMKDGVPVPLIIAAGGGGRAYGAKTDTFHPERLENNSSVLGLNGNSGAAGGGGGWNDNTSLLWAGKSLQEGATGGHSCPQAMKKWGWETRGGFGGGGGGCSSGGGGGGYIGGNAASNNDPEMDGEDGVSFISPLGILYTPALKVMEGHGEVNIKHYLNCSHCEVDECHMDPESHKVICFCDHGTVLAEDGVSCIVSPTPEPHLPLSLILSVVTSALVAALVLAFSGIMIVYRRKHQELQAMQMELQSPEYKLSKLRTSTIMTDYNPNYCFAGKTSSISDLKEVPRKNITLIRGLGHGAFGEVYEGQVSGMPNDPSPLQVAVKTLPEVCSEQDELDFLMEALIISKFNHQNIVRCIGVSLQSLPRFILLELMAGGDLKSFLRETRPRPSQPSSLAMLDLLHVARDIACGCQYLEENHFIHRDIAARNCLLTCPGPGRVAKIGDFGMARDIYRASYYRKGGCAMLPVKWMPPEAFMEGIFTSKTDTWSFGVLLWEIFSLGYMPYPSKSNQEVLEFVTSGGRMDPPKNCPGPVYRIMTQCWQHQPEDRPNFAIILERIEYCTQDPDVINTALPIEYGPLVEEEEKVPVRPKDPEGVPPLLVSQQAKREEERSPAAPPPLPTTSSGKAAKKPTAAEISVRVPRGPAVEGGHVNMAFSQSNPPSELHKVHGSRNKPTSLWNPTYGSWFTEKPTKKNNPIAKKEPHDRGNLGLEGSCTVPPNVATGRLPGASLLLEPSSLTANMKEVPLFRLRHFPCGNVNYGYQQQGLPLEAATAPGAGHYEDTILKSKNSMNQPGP

With `COc1cc2c(cc1Nc1ncc(Cl)c(Nc3ccc(N4CCOCC4)cc3OC)n1)CCN(C(=O)CN(C)C)CC2` [Example 1121, 1-{7-[5-Chloro-4-(2-methoxy-4-morpholin-4-yl-phenylamino)-pyrimidin-2-ylamino]-8-methoxy-1,2,4,5-tetrahydro-benzo[d]azepin-3-yl}-2-dimethylamino-ethanone], the IC50 is greater than 10 µM in test [1] and less than 0.1 µM in test [2].
For `COc1cc2c(cc1Nc1ncc(Cl)c(N[C@@H]3CCCC[C@H]3NS(C)(=O)=O)n1)CCN(CCS(C)(=O)=O)CC2` [Example 1122, N-((1R,2R)-2-{5-Chloro-2-[3-(2-methanesulfonyl-ethyl)-8-methoxy-2,3,4,5-tetrahydro-1H-benzo[d]azepin-7-ylamino]-pyrimidin-4-ylamino}-cyclohexyl)-methanesulfonamide], in that order: greater than 10 µM and less than 0.1 µM.
For `COc1cc2c(cc1Nc1ncc(Cl)c(N[C@H]3[C@@H](C(N)=O)[C@@H]4C=C[C@H]3C4)n1)CCN(CC(=O)N(C)C)CC2` [Example 1123, (1S,2S,3R,4R)-3-[5-Chloro-2-(3-dimethylcarbamoylmethyl-8-methoxy-2,3,4,5-tetrahydro-1H-benzo[d]azepin-7-ylamino)-pyrimidin-4-ylamino]-bicyclo[2.2.1]hept-5-ene-2-carboxylic acid amide], in that order: greater than 10 µM and less than 0.1 µM.
As for `CNC(=O)CN1CCc2cc(Nc3ncc(Cl)c(N[C@H]4[C@@H](C(N)=O)[C@@H]5C=C[C@H]4C5)n3)c(OC)cc2CC1` [Example 1124, (1S,2S,3R,4R)-3-[5-Chloro-2-(8-methoxy-3-methylcarbamoylmethyl-2,3,4,5-tetrahydro-1H-benzo[d]azepin-7-ylamino)-pyrimidin-4-ylamino]-bicyclo[2.2.1]hept-5-ene-2-carboxylic acid amide], the IC50 in test [1] is greater than 10 µM; in test [2], less than 0.1 µM.
Taken in the same sequence, the figures for `COc1cc2c(cc1Nc1ncc(Cl)c(N[C@@H]3CCCC[C@H]3NS(C)(=O)=O)n1)CCN(C(=O)CN(C)C)CC2` [Example 1125, N-((1R,2R)-2-{5-Chloro-2-[3-(2-dimethylamino-acetyl)-8-methoxy-2,3,4,5-tetrahydro-1H-benzo[d]azepin-7-ylamino]-pyrimidin-4-ylamino}-cyclohexyl)-methanesulfonamide] were greater than 10 µM and less than 0.1 µM.
For `CNC(=O)c1ccccc1Nc1nc(Nc2cc3c(cc2OC)CC(=O)N(CCCN2CCOCC2)CC3)ncc1Cl` [Example 1126, 2-{5-Chloro-2-[8-methoxy-3-(3-morpholin-4-yl-propyl)-2-oxo-2,3,4,5-tetrahydro-1H-benzo[d]azepin-7-ylamino]-pyrimidin-4-ylamino}-N-methyl-benzamide], in that order: greater than 10 µM and less than 0.1 µM.
Taken in the same sequence, the figures for `CNC(=O)CN1CCc2ccc(Nc3ncc(Cl)c(Nc4ccc(N5CCOCC5)cc4OC)n3)cc2CC1` [Example 1127, 2-{7-[5-Chloro-4-(2-methoxy-4-morpholin-4-yl-phenylamino)-pyrimidin-2-ylamino]-1,2,4,5-tetrahydro-benzo[d]azepin-3-yl}-N-methyl-acetamide] were 1 to 10 µM and less than 0.1 µM.
`COc1cc2c(cc1Nc1ncc(Cl)c(N[C@H]3[C@@H](C(N)=O)[C@@H]4C=C[C@H]3C4)n1)CCN(CCS(C)(=O)=O)CC2` [Example 1128, (1S,2S,3R,4R)-3-{5-Chloro-2-[3-(2-methanesulfonyl-ethyl)-8-methoxy-2,3,4,5-tetrahydro-1H-benzo[d]azepin-7-ylamino]-pyrimidin-4-ylamino}-bicyclo[2.2.1]hept-5-ene-2-carboxylic acid amide]: the IC50 in test [1] was greater than 10 µM; in test [2], less than 0.1 µM.
For `CCN1CCc2cc(Nc3ncc(Cl)c(Nc4ccc(N5CCOCC5)cc4OC)n3)c(OC)cc2CC1` [Example 1129, 5-Chloro-N*2*-(3-ethyl-8-methoxy-2,3,4,5-tetrahydro-1H-benzo[d]azepin-7-yl)-N*4*-(2-methoxy-4-morpholin-4-yl-phenyl)-pyrimidine-2,4-diamine], in that order: greater than 10 µM and less than 0.1 µM.
For `COc1cc2c(cc1Nc1ncc(Cl)c(Nc3ccccc3OC)n1)CCN(C(=O)CN(C)C)CC2` [Example 1131, 1-{7-[5-Chloro-4-(2-methoxy-phenylamino)-pyrimidin-2-ylamino]-8-methoxy-1,2,4,5-tetrahydro-benzo[d]azepin-3-yl}-2-dimethylamino-ethanone], in that order: greater than 10 µM and less than 0.1 µM.
Taken in the same sequence, the figures for `COc1cc2c(cc1Nc1ncc(Cl)c(Nc3ccccc3OC)n1)CCN(CCS(C)(=O)=O)CC2` [Example 1132, 5-Chloro-N*2*-[3-(2-methanesulfonyl-ethyl)-8-methoxy-2,3,4,5-tetrahydro-1H-benzo[d]azepin-7-yl]-N*4*-(2-methoxy-phenyl)-pyrimidine-2,4-diamine] were greater than 10 µM and less than 0.1 µM.
With `CCN1CCc2ccc(OC)c(Nc3ncc(Cl)c(Nc4ccc(N5CCOCC5)cc4OC)n3)c2CC1=O` [Example 1133, 9-[5-Chloro-4-(2-methoxy-4-morpholin-4-yl-phenylamino)-pyrimidin-2-ylamino]-3-ethyl-8-methoxy-1,3,4,5-tetrahydro-benzo[d]azepin-2-one], the results for the IC50 in test [1] and in test [2] were greater than 10 µM and 1 to 10 µM, respectively.
In the case of `CCNC(=O)c1ccccc1Nc1nc(Nc2c(OC)ccc3c2CC(=O)N(CC)CC3)ncc1Cl` [Example 1134, 2-[5-Chloro-2-(3-ethyl-7-methoxy-4-oxo-2,3,4,5-tetrahydro-1H-benzo[d]azepin-6-ylamino)-pyrimidin-4-ylamino]-N-ethyl-benzamide], the IC50 in test [1] and in test [2] was greater than 10 µM throughout.
As to `CNC(=O)CN1CCc2cc(Nc3ncc(Cl)c(Nc4ccccc4OC)n3)c(OC)cc2CC1` [Example 1135, 2-{7-[5-Chloro-4-(2-methoxy-phenylamino)-pyrimidin-2-ylamino]-8-methoxy-1,2,4,5-tetrahydro-benzo[d]azepin-3-yl}-N-methyl-acetamide], the IC50 in test [1] is greater than 10 µM; in test [2], less than 0.1 µM.
For `COc1cc2c(cc1Nc1ncc(Cl)c(Nc3cc(C(N)=O)ccc3OC)n1)CCN(CC(=O)N(C)C)CC2` [Example 1136, 3-[5-Chloro-2-(3-dimethylcarbamoylmethyl-8-methoxy-2,3,4,5-tetrahydro-1H-benzo[d]azepin-7-ylamino)-pyrimidin-4-ylamino]-4-methoxy-benzamide], in that order: 1 to 10 µM and 0.1 to 1 µM.
For `COc1cc2c(cc1Nc1ncc(Cl)c(Nc3cc(C(N)=O)ccc3OC)n1)CCN(CCS(C)(=O)=O)CC2` [Example 1137, 3-{5-Chloro-2-[3-(2-methanesulfonyl-ethyl)-8-methoxy-2,3,4,5-tetrahydro-1H-benzo[d]azepin-7-ylamino]-pyrimidin-4-ylamino}-4-methoxy-benzamide], in that order: greater than 10 µM and 0.1 to 1 µM.
In the case of `CNC(=O)CN1CCc2cc(Nc3ncc(Cl)c(Nc4cc(C(N)=O)ccc4OC)n3)c(OC)cc2CC1` [Example 1138, 3-[5-Chloro-2-(8-methoxy-3-methylcarbamoylmethyl-2,3,4,5-tetrahydro-1H-benzo[d]azepin-7-ylamino)-pyrimidin-4-ylamino]-4-methoxy-benzamide], the IC50 in test [1] was greater than 10 µM; in test [2] it was 0.1 to 1 µM.
Taken in the same sequence, the figures for `COc1cc2c(cc1Nc1ncc(Cl)c(Nc3cc(C(N)=O)ccc3OC)n1)CCN(C(=O)CN(C)C)CC2` [Example 1139, 3-{5-Chloro-2-[3-(2-dimethylamino-acetyl)-8-methoxy-2,3,4,5-tetrahydro-1H-benzo[d]azepin-7-ylamino]-pyrimidin-4-ylamino}-4-methoxy-benzamide] were greater than 10 µM and 1 to 10 µM.
On to `COCCN1CCc2cc(Nc3ncc(Cl)c(Nc4cc(C(N)=O)ccc4OC)n3)c(OC)cc2CC1` [Example 1140, 3-{5-Chloro-2-[8-methoxy-3-(2-methoxy-ethyl)-2,3,4,5-tetrahydro-1H-benzo[d]azepin-7-ylamino]-pyrimidin-4-ylamino}-4-methoxy-benzamide], for which the results for the IC50 in test [1] and in test [2] were greater than 10 µM and 1 to 10 µM, respectively.
For `COc1cc2c(cc1Nc1ncc(Cl)c(Nc3ccccc3S(=O)(=O)N(C)C)n1)CCN(CC(=O)N(C)C)CC2` [Example 1141, 2-{7-[5-Chloro-4-(2-dimethylsulfamoyl-phenylamino)-pyrimidin-2-ylamino]-8-methoxy-1,2,4,5-tetrahydro-benzo[d]azepin-3-yl}-N,N-dimethyl-acetamide], in that order: 1 to 10 µM and less than 0.1 µM.
For `COc1cc2c(cc1Nc1ncc(Cl)c(Nc3ccccc3S(C)(=O)=O)n1)CCN(CC(=O)N(C)C)CC2` [Example 1142, 2-{7-[5-Chloro-4-(2-methanesulfonyl-phenylamino)-pyrimidin-2-ylamino]-8-methoxy-1,2,4,5-tetrahydro-benzo[d]azepin-3-yl}-N,N-dimethyl-acetamide], in that order: 1 to 10 µM and less than 0.1 µM.
For the compound `COc1cc2c(cc1Nc1ncc(Cl)c(Nc3ccccc3S(C)(=O)=O)n1)CCN(CC(N)=O)CC2` [Example 1143, 2-{7-[5-Chloro-4-(2-methanesulfonyl-phenylamino)-pyrimidin-2-ylamino]-8-methoxy-1,2,4,5-tetrahydro-benzo[d]azepin-3-yl}-acetamide], the figures for the IC50 in test [1] and in test [2] were greater than 10 µM and less than 0.1 µM, respectively.
